Measurements as given in US6447801B1, “Anti-parasitic action of N,N-diethyl-m-toluamide (deet) and formulations that prolong its activity in the skin” (priority 1997, dated 2002).
Where “and” joins values, the source holds several entries; their conditions need not be identical. Identical values can stand only once.

Tests used:
[1] = test system: cercariae of Schistosoma mansoni; test: In vitro effects of DEET on S. mansoni cercariae (viability by neutral red); format: cell-based
Protocol: FIG. 1 illustrates the in vitro effects of DEET on S. mansoni cercariae. In vitro effects of DEET on cercariae of Schistosoma mansoni. Cercariae were placed in 96 well titre plates coated previously with a serial doubling dilutions of DEET ranging from 30% to 0.24%. At different time periods after exposure to DEET, the percent viability of cercariae was evaluated by neutral red exclusion method. The experiment was repeated 17 times with an “n” of 189 to 440 cercariae for each treatment.
Based on the foregoing observations, DEET was tested for its effects on S. mansoni cercariae. DEET is commercially available and was purchased from Fluka Chemicals Corp. (Ronkonkoma, N.Y.). For in vitro studies, serial doubling dilutions of DEET ranging from 30% to 0.24% were prepared in isopropanol(Sigma, St. Louis, Mo.) and 50 μl of each dilution was transferred to individual wells of a 96 well flat bottom micro titre plate (Costar, Cambridge, Mass.). Control wells received 50 μl of isopropanol each. The plates were then kept covered in a fume hood and the fluid was allowed to evaporate overnight. The following day approximately 50 cercariae of S. mansoni suspended in 50 μl of RPMI-1640 media (pH 7.4; Gibco BRL) or phosphate buffered saline (PBS, pH 7.0) was placed in each well and the viability of the cercariae were monitored at 30 min, 60 min, and 4 hrs. A total of 17 replicas were performed for each dilution and for each time point in any one given experiment. To determine the viability of cercariae, 10 μl of a 0.05% Neutral Red (Sigma Chemical Co.) was added to each well at the end of the experiment and the percentage of live and dead cercariae was determined as described in He et al., Acta Zoologica Sinica, 31:240-245 (1985).

cercariae of S. mansoni = test: Cercarial penetration through mouse skin and worm establishment, application before infection (compressed organ autoradiography); format: in vivo, Schistosoma mansoni; conditions: for protection against schistosomiasis: 10% DEET
Description: For in vivo animal experiments, male mice of the CD1 strain, weighing approximately 18-20 grams, purchased from Charles River Laboratories (Wilmington, Mass.) were used. The use of animals in these experiments were in compliance with the Animal Welfare Act and other Federal statues and regulations relating to animals as stated in the National Institute of Health publication: Guide for the Care and Use of Laboratory Animals. Mice were infected individually with schistosome cercariae via either tail skin or via shaved abdominal skin. For infection via tail skin, the mouse was restrained in a cage and the tail was dipped for 60 minutes in a tube containing 250-300 ^35S-labeled cercariae suspended in 10 ml of distilled water at room temperature. For infection via abdominal skin, the mouse was restrained on its back. After shaving the abdominal skin, 150-200 ^35S-labeled cercariae were applied to the skin in a drop of distilled water, covered with a cover slip and exposed for 30 minutes.
To determine skin penetration and worm establishment, whole tail skin or the area of abdominal skin that was exposed to the cercariae as described above and the lungs were removed from each mouse on day seven after infection and processed for compressed organ autoradiography techniques as described previously (Li J W et al., Parasitology International 46: 55-65 (1997)). Briefly, the skin and lungs were mounted on a cardboard sheet, covered with plastic wrap and kept under a tissue press for 48 hrs at room temperature. The pressed and dried tissue was then exposed to X-ray film (Fuji RX, Fisher Scientific, Pittsburgh, Pa.) at −70° C. for 7-9 days. Following autoradiographic development, the dark spots (which represent reduced silver foci on film) were counted and percent worm establishment was calculated (number of spots/total number of cercariae used for infection X 100).
For application of DEET to the tail skin, mice were individually kept in restraining cages and their tail was dipped in 7.5% DEET solution (prepared in isopropanol) for 5 min. Following application the skin was air dried for 30 min, and rinsed in distilled water for 1 min before exposure to radio-labeled cercariae of S. mansoni as mentioned in Example 3.
For application of DEET to the abdominal skin, mice were restrained to the back and their abdomen shaved. 200 μl of an appropriate concentration of DEET in isopropanol solution was dropped on to the abdomen and allowed to dry for 15 min. After drying, the skin was washed for 1 min with distilled water and exposed to radio-labeled cercariae for 30 min.
Experiments were also conducted to see how long the cercaricidal activity of DEET remained in the skin after a single application. In these experiments 10% DEET was applied to the shaved abdominal skin of mice and was allowed to dry. Thirty minutes after DEET application, the area of skin was washed continuously for one minute with running distilled water. At different time points (30 min, 1 hr, 4 hrs, and 24 hrs) after DEET application, mice were infected with radio-labeled cercariae (as described in Example 2) and worm establishment was determined by compressed organ autoradiography (as described in Example 3).

Aedes aegypti = test: Laboratory evaluation as mosquito repellant on human volunteers; format: in vivo; conditions: 10% or 30%; human forearm
Protocol: However, one of the major uses of DEET is against mosquitoes. Therefore, we wanted to test whether Lipodeet prolongs the mosquito repellency activity of DEET. These experiments were conducted on human volunteers at the Illinois Natural History Survey Center for Economic Entomology, University of Illinois Urbana-Champaign. […] The test solutions were applied to 8.5 cm area (1.76 μl/cm^2) on the forearm of the subjects and the duration of repellency against the mosquitoes was evaluated over a period of 24 hrs. No treatment was applied to the other forearm and this remained as controls. Paper cups (1 pint) screened at one end with a fine mesh and closed at the other end was used as test cages in this study. […] Five minutes after application of the samples were treated as time 0. After the exposure, mosquitoes were removed and the number that were blooded were counted. Values were expressed as follows: [formula]

insects = conditions: normally; cited from earlier work
[2] = 7.5% DEET applied to skin before infection, mice, day 7, n = 10

SMILES: CCN(CC)C(=O)c1cccc(C)c1 [DEET, N,N-diethyl-m-toluamide]
- time to immobilize all the cercariae ([1]; DEET 7.5%): ≤ 5 min
- cercariae dead ([1]; DEET 7.5%, by 4 hours): 100%
- immobilization of cercariae ([1]; DEET at concentrations of 15% and above): immediately immobilized
- cercariae dead (neutral red staining) ([1]; DEET at concentrations of 15% and above, 30 minutes): 100%
- immobilizing or killing of cercariae ([1]; concentrations below 7.5% of DEET): less effective in immobilizing or killing cercariae
- protection against cercarial penetration (cercariae of S. mansoni; 5% DEET applied to mouse skin): 72%
- Percent Worm Established, Lungs (cercariae of S. mansoni; [2]): 0
- Percent Worm Established, Skin (cercariae of S. mansoni; [2]): 0.13 ± 0.01%
- Percent Worm Established, Total (cercariae of S. mansoni; [2]): 0.13% and 0.13 ± 0.01%
- protection against schistosomiasis (cercariae of S. mansoni; infection 30 min after application, skin washed one minute): 100%
- protection against schistosomiasis (cercariae of S. mansoni; infection 24 hrs after application): no protection at all
- protection against schistosomiasis (cercariae of S. mansoni; infection four hours after application): 85±1%
- protection against schistosomiasis (cercariae of S. mansoni; infection one hour after application): 98±1%
- effectiveness in preventing the entry of cercaria into the mouse skin (cercariae of S. mansoni; DEET at 10, 20 or 40%): 100%
- duration of mosquito repellent effect (Aedes aegypti): completely lost by six hours
- duration of effect under field condition (insects): eight hours
